Experimental findings from BindingDB's records for doi:10.1016/j.bmcl.2010.09.092 (University of New Mexico School of Medicine, 2010) are described below.

A short description of this experiment: Inhibition of human alphaVbeta3 receptor expressed in african green monkey Vero E6 cells assessed as inhibition of SNV infection in cells by immunofluorescent assay.
As to `O=C(NCc1cccs1)C(Cc1ccccc1)NS(=O)(=O)c1ccc2nsnc2c1` (racemic) [rac-2-(benzo[c][1,2,5]thiadiazole-5-sulfonamido)-3-phenyl-N-(thiophen-2-ylmethyl)propanamide], the EC50 turned out to be 2.5 nM.

As to `O=C(NCc1ccc2c(c1)OCO2)C(Cc1ccccc1)NS(=O)(=O)c1cccc2cccnc12` (racemic) [rac-N-(benzo[d][1,3]dioxol-5-ylmethyl)-3-phenyl-2-(quinoline-8-sulfonamido)propanamide], the EC50 stood at 1.6 nM. As to `O=c1c(C=NCc2ccco2)c(CSc2ccc(Cl)cc2)[nH]n1-c1nc2ccccc2s1` [2-(benzo[d]thiazol-2-yl)-5-((4-chlorophenylthio)methyl)-4-((furan-2-ylmethylimino)methyl)-1H-pyrazol-3(2H)-one], the EC50 was determined as 1.3 nM.

As a reminder, the EC50 is the midpoint of the concentration-response curve.
